Laboratory results as given in PMC8041284, “Tunable Methacrylamides for Covalent Ligand Directed Release Chemistry” (Journal of the American Chemical Society, 2021).

What follows are compounds tested against BTK (Homo sapiens, UniProt Q06187) (assay: biochemical). Settings: read-out: BTK inhibition (%).
BTK, sequence (Q06187 402-655 limits assumed): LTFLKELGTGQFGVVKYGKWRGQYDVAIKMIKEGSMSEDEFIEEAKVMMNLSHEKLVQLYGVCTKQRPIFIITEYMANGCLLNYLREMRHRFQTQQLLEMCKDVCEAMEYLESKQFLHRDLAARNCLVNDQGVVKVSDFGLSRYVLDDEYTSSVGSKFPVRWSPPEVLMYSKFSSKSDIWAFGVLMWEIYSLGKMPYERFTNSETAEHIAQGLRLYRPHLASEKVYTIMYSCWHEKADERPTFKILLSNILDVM
`CCN1C[C@]2(OC(=O)c3ccccc3NC(C)=O)CC[C@H](OC)[C@@]34[C@@H]2C[C@@H]([C@@H]13)[C@@]1(O)C[C@H](OC)[C@H]2C[C@@H]4[C@]1(O)[C@H]2OC` [PCM-0094835] was tested, and the inhibition at 10 µM was 21%. `COc1ccc(N(C(=O)Oc2c(C)cccc2C)c2ccnc(Nc3ccc(N4CCN(C)CC4)cc3)n2)c(OC)c1` [PCM-0215345] showed an inhibition at 10 µM of 24.1%.

Same assay, conditions: read-out: BTK inhibition (%), 0.75 uM BTK, […] probe 3l, 15 min preincubation
`CCc1nc(N)nc(N)c1-c1ccc(Cl)cc1` [PCM-0085830] was tested, and the inhibition at 10 µM was -13.2%. `CC(C)(C)c1cc(C=C(C#N)C#N)cc(C(C)(C)C)c1O` [PCM-0064935] was tested, and the inhibition at 10 µM was 15.2%. `COc1ccc(Cn2c3ncnc4c(ncn4Cc4ccc(OC)cc4)c-3nc2=O)cc1` [PCM-0215699] showed an inhibition at 10 µM of 7.7%. For `O=c1cc(O)c(Cl)c[nH]1` [PCM-0095217], the inhibition at 10 µM was -3.9%. Work on `COC(=O)c1ccc([C@H]2C3Nc4ccccc4C3C[C@H](C(=O)OC)N2C(=O)CCl)cc1` (stereo partly shown) [PCM-0214584] yielded an inhibition at 10 µM of 35.5%. `NCCCCCNCC12CC3CC(CC(C3)C1)C2` [PCM-0095503] showed an inhibition at 10 µM of -19.5%. Work on `CN(C)CC/C=C1/c2ccccc2COc2ccc(CC(=O)O)cc21` [PCM-0086250] yielded an inhibition at 10 µM of 8.3%. Compound `c1csc(-c2ccc(-c3cccs3)s2)c1` [PCM-0215157] has an inhibition at 10 µM of 0%. Work on `COC1CCN(C(=O)c2cc(Cc3n[nH]c(=O)c4ccccc34)ccc2F)CC1` [PCM-0095571] yielded an inhibition at 10 µM of 10%. `Cn1nccc1Nc1nccc(-c2cc3c(s2)C(C)(C)N(CCN2CCOCC2)C3=O)n1` [PCM-0215875] was tested, and the inhibition at 10 µM was 6.9%. Compound `COc1ccc2c(c1OC)CN1CCc3cc4c(cc3C1C2)OCO4` (stereo not shown) [PCM-0216126] has an inhibition at 10 µM of 13.1%. For `O=C1C[C@@H](c2ccc(O)cc2)Oc2cc(O)cc(O)c21` [PCM-0094816], the inhibition at 10 µM was 3.9%. Work on `O=C(O)c1ccc(O)cc1` [PCM-0214982] yielded an inhibition at 10 µM of -10.9%. `Cc1ccc(S(=O)(=O)OCC(=O)Nc2ccc(C(=O)O)c(O)c2)cc1` [PCM-0094985] gave an inhibition at 10 µM of 29.6%. `CC(C)(C)C(O)/C=C/c1ccc2c(c1)OCO2` (stereo not shown) [PCM-0216138] gave an inhibition at 10 µM of -4.6%. For `NC[C@@H]1O[C@H](O[C@H]2[C@@H](O)[C@H](O[C@@H]3[C@@H](O)[C@H](N)C[C@H](N)[C@H]3O[C@H]3O[C@H](CN)[C@@H](O)[C@H](O)[C@H]3N)O[C@@H]2CO)[C@H](N)[C@@H](O)[C@@H]1O` [PCM-0095358], the inhibition at 10 µM was 4.3%. `COc1cc(N2CCC(N3CCN(C)CC3)CC2)ccc1Nc1ncnc(Nc2ccccc2S(=O)(=O)C(C)C)n1` [PCM-0215273] showed an inhibition at 10 µM of 89%. `COc1ccc(-c2nc3ccc(C4=NNC(=O)CC4C)cc3[nH]2)cc1` (stereo not shown) [PCM-0095109] showed an inhibition at 10 µM of -21.8%. Compound `OC[C@@H](O)[C@@H](O)CO` [PCM-0214773] has an inhibition at 10 µM of 7.8%. `O=C1/C(=C/c2cccs2)CC/C1=C\c1cccs1` [PCM-0215307] was tested, and the inhibition at 10 µM was 6%. `OC[C@@H](O)[C@@H](O)[C@@H](O)[C@@H](O)CO` [PCM-0216285] was tested, and the inhibition at 10 µM was -17%. Compound `C/C=C/C=C/C(=O)O` [PCM-0215158] has an inhibition at 10 µM of 0%. In the case of `COc1ccc(C2=N[C@@H](c3ccc(Cl)cc3)[C@@H](c3ccc(Cl)cc3)N2C(=O)N2CCNC(=O)C2)c(OC(C)C)c1` [PCM-0094990], the inhibition at 10 µM is reported as 14.5%. `COc1cc(-c2coc3cc4c(c(OC)c3c2=O)OCO4)cc(OC)c1OC` [PCM-0216353] showed an inhibition at 10 µM of -9.3%. For `O=C(NCCN1CCOCC1)Nc1ccc(C(=O)/C=C/c2cccc(N3CCOCC3)n2)cc1` [PCM-0215849], the inhibition at 10 µM was -0.8%. `O=C(O)/C(S)=C/c1c[nH]c2ccc(F)cc12` [PCM-0215343] showed an inhibition at 10 µM of 35.5%. Work on `COc1cc([C@@H]2c3cc4c(cc3[C@@H](O[C@@H]3O[C@@H]5CO[C@@H](c6cccs6)O[C@H]5[C@H](O)[C@H]3O)[C@H]3COC(=O)[C@H]23)OCO4)cc(OC)c1O` [PCM-0095114] yielded an inhibition at 10 µM of 24.1%. In the case of `Cc1ccc(NC(=O)C2(c3ccc4c(c3)OC(F)(F)O4)CC2)nc1-c1cccc(C(=O)O)c1` [PCM-0095124], the inhibition at 10 µM is reported as -9.3%. For `NC(=O)[C@@H](CCC(F)(F)F)N(Cc1ccc(-c2ncon2)cc1F)S(=O)(=O)c1ccc(Cl)cc1` [PCM-0214565], the inhibition at 10 µM was 9.3%. `C[C@@H]1COCCN1c1cc(C2(S(C)(=O)=O)CC2)nc(-c2cccc3[nH]ccc23)n1` [PCM-0095779] was tested, and the inhibition at 10 µM was -7.6%. Work on `CN(C)CCCN1c2ccccc2Sc2ccc(Cl)cc21` [PCM-0064436] yielded an inhibition at 10 µM of -16.3%. `CNC(=O)c1ccccc1Nc1nc(Nc2ccc(N3CCOCC3)cc2OC)ncc1Cl` [PCM-0095447] gave an inhibition at 10 µM of 67.6%. For `CC(O)c1cc(C(=O)N[C@@H](C)Cn2ccc(-c3ccc(C#N)c(Cl)c3)n2)n[nH]1` (stereo partly shown) [PCM-0215540], the inhibition at 10 µM was -20.8%. With `OC[C@H]1O[C@@H](O[C@@H]2OC=C[C@H]3[C@H](O)[C@@H]4O[C@]4(CO)[C@@H]23)[C@H](O)[C@@H](O)[C@@H]1O` [PCM-0215028] the inhibition at 10 µM was 26.2%. Compound `O=[N+]([O-])c1ccc(Nc2nc(N3CCOCC3)nc(N3CCOCC3)n2)cc1` [PCM-0215468] has an inhibition at 10 µM of 0%.
